Laboratory results: PMC9853864, “Nonspecific Binding of Adenosine Tripolyphosphate and Tripolyphosphate Modulates the Phase Behavior of Lysozyme” (Journal of the American Chemical Society, 2023)

Target: T1, hen egg-white lysozyme (HEWL); chicken egg lysozyme (Gallus gallus, UniProt P00698)
T1 construct: gene LYZ
Experiment: 1H NMR titration, Trp imino CSP (W62, W111, W123), […] fit
Type: binding

T1 sequence (P00698 19-147): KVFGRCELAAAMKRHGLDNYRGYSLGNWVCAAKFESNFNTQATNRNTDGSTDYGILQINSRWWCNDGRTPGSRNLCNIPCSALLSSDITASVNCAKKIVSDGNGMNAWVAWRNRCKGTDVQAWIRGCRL

Kd: ~1000 µM
Compound: O=P(O)(O)OP(=O)(O)OP(=O)(O)O [TPP]
